Results published in ChEMBL document CHEMBL6096630, “Enhancing therapeutic efficacy in homologous recombination-proficient pancreatic cancer via the combination of PARP1-PROTAC and a BRD4 inhibitor” (Bioorg Med Chem, 2024).
Calls of active or inactive are those of the source. The calls are words filed in the database; no cut-off is given here.

Key:
PANC-1 [1] = experiment: Synergistic antiproliferative activity against human PANC-1 cells expressing wild-type BRCA assessed as inhibition of cell viability incubated for 5 days in presence of JQ1 by CCK8 assay; format: functional, cell-based; details: time 5.0 day
BXPC-3 = experiment: Synergistic antiproliferative activity against human BXPC-3 cells expressing wild-type BRCA assessed as inhibition of cell viability incubated for 5 days in presence of JQ1 by CCK8 assay; format: functional, cell-based; details: time 5.0 day
[2] = target: T1, Protein cereblon/Poly [ADP-ribose] polymerase 1 (Homo sapiens, UniProt P09874+Q96SW2); experiment: PROTAC activity at CRBN/PARP1 in human BXPC-3 cells assessed as induction of PARP1 degradation incubated for 24 hrs by Western blot analysis; format: cell-based
[3] = target: T1, Protein cereblon/Poly [ADP-ribose] polymerase 1; experiment: PROTAC activity at CRBN/PARP1 in human BXPC-3 cells assessed as induction of PARP1 degradation incubated for 24 hrs by Western blot analysis relative to control; format: cell-based
Target sequence in this assay (P09874 2-1014 limits assumed): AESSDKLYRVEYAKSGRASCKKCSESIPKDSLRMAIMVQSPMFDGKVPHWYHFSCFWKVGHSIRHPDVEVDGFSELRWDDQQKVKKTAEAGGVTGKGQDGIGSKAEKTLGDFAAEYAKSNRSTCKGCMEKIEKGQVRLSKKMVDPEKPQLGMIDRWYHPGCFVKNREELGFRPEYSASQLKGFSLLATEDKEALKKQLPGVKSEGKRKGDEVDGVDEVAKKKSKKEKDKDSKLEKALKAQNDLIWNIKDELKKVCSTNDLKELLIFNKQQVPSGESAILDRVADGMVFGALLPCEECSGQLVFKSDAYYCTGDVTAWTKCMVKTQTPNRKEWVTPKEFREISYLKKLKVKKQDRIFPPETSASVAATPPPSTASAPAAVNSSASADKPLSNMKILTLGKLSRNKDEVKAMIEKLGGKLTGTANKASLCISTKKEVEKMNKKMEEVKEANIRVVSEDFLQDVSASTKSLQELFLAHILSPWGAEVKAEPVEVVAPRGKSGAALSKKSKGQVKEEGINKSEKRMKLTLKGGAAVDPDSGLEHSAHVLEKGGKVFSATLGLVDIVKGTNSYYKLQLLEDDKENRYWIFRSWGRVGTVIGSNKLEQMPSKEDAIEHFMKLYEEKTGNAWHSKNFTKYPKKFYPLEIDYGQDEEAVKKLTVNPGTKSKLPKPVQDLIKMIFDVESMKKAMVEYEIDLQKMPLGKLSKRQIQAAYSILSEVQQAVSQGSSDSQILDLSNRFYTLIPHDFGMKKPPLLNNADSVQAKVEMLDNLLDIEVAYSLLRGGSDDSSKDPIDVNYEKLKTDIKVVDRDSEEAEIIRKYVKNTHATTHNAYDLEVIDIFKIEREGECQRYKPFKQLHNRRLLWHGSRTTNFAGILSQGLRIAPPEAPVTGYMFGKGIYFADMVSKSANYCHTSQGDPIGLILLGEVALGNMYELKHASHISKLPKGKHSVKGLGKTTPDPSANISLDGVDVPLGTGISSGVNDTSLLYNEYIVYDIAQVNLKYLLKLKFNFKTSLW
Target sequence in this assay (Q96SW2 whole entry partner): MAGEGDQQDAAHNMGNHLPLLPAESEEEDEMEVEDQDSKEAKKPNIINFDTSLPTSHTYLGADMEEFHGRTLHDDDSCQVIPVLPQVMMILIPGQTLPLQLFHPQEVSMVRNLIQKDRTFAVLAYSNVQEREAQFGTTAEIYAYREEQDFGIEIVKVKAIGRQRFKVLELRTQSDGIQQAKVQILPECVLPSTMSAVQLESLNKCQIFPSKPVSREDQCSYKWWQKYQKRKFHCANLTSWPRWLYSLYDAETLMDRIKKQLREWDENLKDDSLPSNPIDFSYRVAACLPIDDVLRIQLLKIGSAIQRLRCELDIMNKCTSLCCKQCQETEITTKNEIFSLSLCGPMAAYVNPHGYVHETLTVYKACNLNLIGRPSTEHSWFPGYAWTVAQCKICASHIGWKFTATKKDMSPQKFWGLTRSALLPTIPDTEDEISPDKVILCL

PANC-1 [4] = experiment: Induction of cell cycle arrest in human PANC-1 cells assessed as decrease in cyclin D1 level at 2 uM incubated for 24 hrs in presence of JQ1 by […]; format: functional
PANC-1 [5] = experiment: Induction of apoptosis in human PANC-1 cells at 2 uM incubated for 48 hrs in presence of JQ1 by Annexin V-FITC/PI staining based flow cytometry relative to compound treatment alone; format: functional
PANC-1 [6] = experiment: Induction of apoptosis in human PANC-1 cells assessed as increase in cleaved caspase-3 level at 2 uM incubated for 48 hrs in presence of JQ1 by Western blot analysis; format: functional, cell-based
PANC-1 [7] = experiment: Induction of DNA damage in human PANC-1 cells assessed as decrease in BRCA1 level at 1 uM in presence of OL by Western blot analysis; format: functional, cell-based
PANC-1 [8] = experiment: Induction of cell cycle arrest in human PANC-1 cells assessed as accumulation at G2 phase at 0.5 uM incubated for 24 hrs by PI staining based flow cytometry (reference value: 9.36 %); format: functional
PANC-1 [9] = experiment: Induction of cell cycle arrest in human PANC-1 cells assessed as accumulation at G1 phase at 1 uM incubated for 24 hrs in presence of OL by PI staining based flow cytometry (reference value: 51.70 %); format: functional
PANC-1 [10] = experiment: Induction of cell cycle arrest in human PANC-1 cells assessed as accumulation at S phase at 1 uM incubated for 24 hrs in presence of OL by PI staining based flow cytometry (reference value: 38.94 %); format: functional
PANC-1 [11] = experiment: Induction of cell cycle arrest in human PANC-1 cells assessed as accumulation at G2 phase at 0.12 uM incubated for 24 hrs by PI staining based flow cytometry (reference value: 9.36 %); format: functional
PANC-1 [12] = experiment: Induction of cell cycle arrest in human PANC-1 cells assessed as accumulation at G1/S phase at 0.12 to 2 uM incubated for 24 hrs by PI staining based flow cytometry; format: functional; details: dose 0.12-2 µM
PANC-1 [13] = experiment: Induction of apoptosis in human PANC-1 cells assessed as early apoptotic cells at 0.12 uM incubated for 48 hrs by Annexin V-FITC/PI staining based flow cytometry (reference value: 1.41 %); format: functional
PANC-1 [14] = experiment: Induction of apoptosis in human PANC-1 cells assessed as late apoptotic cells at 0.5 uM incubated for 48 hrs by Annexin V-FITC/PI staining based flow cytometry (reference value: 3.87 %); format: functional
PANC-1 [15] = experiment: Induction of apoptosis in human PANC-1 cells assessed as viable cells at 1 uM incubated for 48 hrs by Annexin V-FITC/PI staining based flow cytometry (reference value: 91.64 %); format: functional; details: read-out: Activity
PANC-1 [16] = experiment: Induction of apoptosis in human PANC-1 cells assessed as late apoptotic cells at 1 uM incubated for 48 hrs in presence of OL by Annexin V-FITC/PI staining based flow cytometry (reference value: 3.87 %); format: functional
[17] = Toxicity in BALB/c mouse xenografted with human PANC-1 cells assessed as animal morbidity at 20 mg/kg, ip for 4 weeks administered for 5 days consecutively and 2 days without treatment on every week in presence of OL; format: organism-based; details: in vivo, 672 h
[18] = Toxicity in BALB/c mouse xenografted with human PANC-1 cells assessed as pathological changes in spleen at 20 mg/kg, ip for 4 weeks administered for 5 days consecutively and 2 days without treatment on every week by H and E staining based analysis; format: organism-based; details: in vivo, 672 h

| Compound | inhibition (PANC-1 [1]) | inhibition (BXPC-3) | DC50 [2] [nM] | Activity ([2]; dose <= 10.0 µM) | Emax [3] [%] | Activity (PANC-1 [4]) | Activity (PANC-1 [5]) [%] | Activity (PANC-1 [6]) | Activity (PANC-1 [7]) | Activity (PANC-1 [8]) [%] | Activity (PANC-1 [9]) [%] | Activity (PANC-1 [10]) [%] | Activity (PANC-1 [11]) [%] | Activity (PANC-1 [12]) | Activity (PANC-1 [13]) [%] | Activity (PANC-1 [14]) [%] | viability at 1 µM (PANC-1 [15]) [%] | Activity (PANC-1 [16]) [%] | Activity [17] | Activity [18] |
| --- | --- | --- | --- | --- | --- | --- | --- | --- | --- | --- | --- | --- | --- | --- | --- | --- | --- | --- | --- | --- |
| O=C1CCC(N2C(=O)c3cccc(NC(=O)CNCCCCCCCCCCC(=O)N4CCN(C(=O)c5cc(Cc6n[nH]c(=O)c7ccccc67)ccc5F)CC4)c3C2=O)C(=O)N1 (stereo not given) | Active | Active | 4.74 | Dose-dependent-effect | > 92 | Active | 20.5 | Active |  |  |  |  |  |  |  |  |  |  |  |  |
| Cc1sc2c(c1C)C(c1ccc(Cl)cc1)=N[C@@H](CC(=O)OC(C)(C)C)c1nnc(C)n1-2 |  |  |  |  |  |  |  |  | Active | 10.56 | 58.42 | 25.85 | 13.25 | Active | 2.83 | 10.08 | 80.3 | 21.52 | Non-toxic | Non-toxic |
